Experimental data from patent US20220073495A1 (priority 2020, published 2022).
Like-named read-outs stand apart in the source and are kept apart here.

Columns and labels:
A/WSN/33 [1] = test: microbe, parasite or virus in culture; type: cell-based, influenza virus
A549 cells [2] = settings: human
in vitro = settings: human
viral M mRNA = test: smRNA-FISH of M mRNA in WSN-infected cells; type: cell-based, influenza virus (WSN); settings: 2.5 μM, WSN MOI 2 for 8 h
[3] = tested on: primary human bronchial epithelial cells (HBEC); test: Cell viability of primary human bronchial epithelial cells (CellTiter-Glo); type: cell-based; settings: 24 h
Method: FIG. 38 depicts compound 2 inhibiting influenza virus replication in primary human bronchial epithelial cells at non-toxic concentrations. […] (B) Cell viability was monitored at 24 h after treatment with 0.1% DMSO or compound 2 at the depicted concentrations using CellTiter-Glo. Three independent experiments were performed.

A/Vietnam/1203/04 (H5N1) = type: cell-based, influenza A virus
cellular GAPDH mRNA = test: smRNA-FISH of GAPDH mRNA in uninfected cells; type: cell-based, Human; settings: 2.5 μM
A/Panama/99 (H3N2) = type: cell-based, influenza A virus
A/WSN/33 (H1N1) = type: cell-based, influenza A virus
M1 to M2 splicing = type: cell-based, influenza virus (WSN); settings: 1 μM or 2.5 μM, WSN MOI 2 for 8 h
A549 cells [4] = test: MTT cytotoxicity assay
HA mRNA = test: smRNA-FISH of HA mRNA in WSN-infected cells; type: cell-based, influenza virus (WSN); settings: 2.5 μM, WSN MOI 2 for 8 h
A/WSN/33 [5] = type: cell-based, influenza virus
cellular ATP levels = test: Cellular ATP levels (CellTiter-Glo); type: cell-based; settings: 2.5 μM, 24 h
Method: FIG. 30 depicts cellular ATP levels measured in cells treated with 0.1% DMSO or 2.5 μM of compound 2 at 24 h. Four independent experiments were performed and each contained 6 technical replicates.
ATP was measured by luminescence using the CellTiter-Glo kit (Promega) according to the manufacturer's instructions.

[6] = tested on: bulk cellular poly(A) RNA; test: RNA-FISH of poly(A) RNA in uninfected cells; type: cell-based, Human; settings: 2.5 μM
[7] = tested on: viral proteins (M1, M2, NA, HA); type: cell-based, A/WSN33
cellular RNAs = test: Cell fractionation and RNAseq of poly(A) RNA; type: cell-based, human; settings: 2.5 μM, 9 hours, cutoff 1.5-fold
NS mRNA = test: smRNA-FISH of NS mRNA in WSN-infected cells; type: cell-based, influenza virus (WSN); settings: 2.5 μM, WSN MOI 2 for 8 h
NS1 to NS2 splicing = test: qPCR of relative ratio of NS2 to NS1 mRNAs; type: cell-based, influenza virus (WSN); settings: 1 μM or 2.5 μM, WSN MOI 2 for 8 h
[8] = unidentified influenza virus, WSN, A549, 24 h, read-out: WSN IC50, A549 cells, A/WSN/33 MOI 0.01, 24 h post infection, NP-positive cells
[9] = unidentified influenza virus, WSN, A549, 24 h, read-out: WSN IC90, A549 cells, A/WSN/33 MOI 0.01, 24 h post infection, NP-positive cells

O=C(CSc1nc2ccccc2[nH]1)Nc1ccccn1 [Compound 11]
IC50 (A/WSN/33 [1]; [8]): > 50 µM | IC90 (A/WSN/33 [1]; [9]): > 50 µM | 24 h MTT CC10 (A549 cells [2]): >50 µM | CC50 (in vitro): > 50 µM

COc1ccc(C2C(CC(C)C(=O)Nc3ccc(Br)cn3)=Cc3ccccc32)cc1 (stereo not shown) [Compound 14]
IC50 (A/WSN/33 [1]; [8]): > 50 µM | IC90 (A/WSN/33 [1]; [9]): > 50 µM | 24 h MTT CC10 (A549 cells [2]): 15.941 µM | CC50 (A549 cells [2]): > 50 µM

Brc1ccc(CSc2nc3ccccc3[nH]2)cc1 [Compound 17]
IC50 (A/WSN/33 [1]; [8]): > 50 µM | IC90 (A/WSN/33 [1]; [9]): > 50 µM | 24 h MTT CC10 (A549 cells [2]): 19.818 µM | CC50 (in vitro): > 50 µM

O=C(C[S+]([O-])c1nc2ccccc2[nH]1)Nc1ccc(Br)cn1 (stereo not shown) [Compound 7]
IC50 (A/WSN/33 [1]; [8]): 11.9 µM | IC90 (A/WSN/33 [1]; [9]): > 50 µM | 24 h MTT CC10 (A549 cells [2]): 31.074 µM | CC50 (in vitro): > 50 µM

CC(Sc1nc2ccccc2[nH]1)C(=O)Nc1ccc(Br)cn1 (stereo not shown) [Compound 12]
IC50 (A/WSN/33 [1]; [8]): > 50 µM | IC90 (A/WSN/33 [1]; [9]): > 50 µM | 24 h MTT CC10 (A549 cells [2]): >50 µM | CC50 (in vitro): > 50 µM

COc1ccc(NC(=O)CSc2nc3ccccc3[nH]2)nc1 [Compound 21]
IC50 (A/WSN/33 [1]; [8]): 17.6 µM | IC90 (A/WSN/33 [1]; [9]): 45.4 µM | 24 h MTT CC10 (A549 cells [2]): 4.69 µM | CC50 (in vitro): > 50 µM

COc1ccc(-n2c(SC(C)C(=O)Nc3ccc(C)cc3Cl)nc3ccccc32)cc1 (stereo not shown) [JMN3-003, reference compound]
nuclear export of viral M mRNA (viral M mRNA): does not inhibit | total M mRNA fluorescence intensity (viral M mRNA): decreased

O=C(CSc1nc2ccccc2[nH]1)Nc1ccc(Br)cn1 [Compound 2, 2-((1H-benzo[d]imidazol-2-yl)thio)-N-(5-bromopyridin-2-yl)acetamide]
cell viability of HBEC [3]: non-toxic | viral replication (viral titer) (A/Vietnam/1203/04 (H5N1); A549 cells, MOI 0.01, 24 h): inhibited | IC50 in plaque assay relative to NP assay (less) (A/Vietnam/1203/04 (H5N1); A/Vietnam/1203/04, plaque assay vs NP assay): ~2 fold | GAPDH mRNA nuclear to cytoplasmic distribution (cellular GAPDH mRNA): not affected | total levels of cellular GAPDH mRNA (cellular GAPDH mRNA): slightly decreased | IC50 (A/WSN/33 [1]; [8]): 3.18 µM | IC90 (A/WSN/33 [1]; [9]): 16.9 µM | IC50 in plaque assay relative to NP assay (less) (A/Panama/99 (H3N2)): ~2 fold | viral replication (viral titer) (A/Panama/99 (H3N2)): inhibited | IC50 in plaque assay relative to NP assay (less) (A/WSN/33 (H1N1)): ~2 fold | viral replication (viral titer) (A/WSN/33 (H1N1)): inhibited | M1 to M2 splicing (relative ratio of M2 to M1 mRNAs) (M1 to M2 splicing): No effect | 24 h MTT CC10 (A549 cells [4]; 24 h, concurrent with immunostaining): 5.839 µM | cell viability at concentrations inhibiting replication (A549 cells [4]; MTT, 24 h or 48 h): did not significantly alter | nuclear export of HA mRNA (HA mRNA): robustly inhibited | viral replication in primary human bronchial epithelial cells (A/WSN/33 [5]): inhibited | cellular ATP levels as a surrogate for cytotoxicity (cellular ATP levels): no significant change | poly(A) RNA nuclear to cytoplasmic ratio [6]: slightly decreased | total levels of bulk cellular poly(A) RNA [6]: did not affect | levels of the viral M1 and M2 proteins as well as NA and HA proteins [7]: decrease | CC50 at 24 h (in vitro; A549 cells): > 50 µM | mRNAs down-regulated (cellular RNAs): 829 mRNAs | mRNAs more cytoplasmic compared to control cells (cellular RNAs): 98 mRNAs | mRNAs preferentially retained in the nucleus (cellular RNAs): 96 mRNAs | mRNAs up-regulated (cellular RNAs): 103 mRNAs | mRNAs with altered nuclear to cytoplasmic distribution (cellular RNAs): 194 mRNAs | nuclear retention of NS mRNA (NS mRNA): weak nuclear retention | total levels of the NS mRNA (NS mRNA): not altered | NS1 to NS2 splicing (NS1 to NS2 splicing): slightly inhibited | nuclear export of viral M mRNA (viral M mRNA): robustly inhibited | total M mRNA fluorescence intensity (viral M mRNA): did not alter

O=C(CSc1nc2ccccc2[nH]1)Nc1ccc(Br)cc1 [Compound 4]
IC50 (A/WSN/33 [1]; [8]): > 50 µM | IC90 (A/WSN/33 [1]; [9]): > 50 µM | 24 h MTT CC10 (A549 cells [2]): >50 µM | CC50 (in vitro): > 50 µM

COc1ccc2[nH]c(SCC(=O)Nc3ccc(Br)cn3)nc2c1 [Compound 28]
IC50 (A/WSN/33 [1]; [8]): 46.5 µM | IC90 (A/WSN/33 [1]; [9]): 50 µM | 24 h MTT CC10 (A549 cells [2]): 7.52 µM | CC50 (in vitro): > 50 µM

Cc1ccc(NC(=O)CSc2nc3ccccc3[nH]2)nc1 [Compound 24]
IC50 (A/WSN/33 [1]; read-out: WSN IC50, A549 cells, A/WSN/33 MOI 0.01, 24 h post infection, NP-positive cells): 8.7 µM | IC90 (A/WSN/33 [1]; read-out: WSN IC90, A549 cells, A/WSN/33 MOI 0.01, 24 h post infection, NP-positive cells): 24.5 µM | 24 h MTT CC10 (A549 cells [2]): 5.552 µM | CC50 (A549 cells [2]): > 50 µM

Cc1cccc2[nH]c(SCC(=O)Nc3ccc(Br)cn3)nc12 [Compound 3]
IC50 (A/WSN/33 [1]; [8]): 4.94 µM | IC90 (A/WSN/33 [1]; [9]): 10 µM | 24 h MTT CC10 (A549 cells [2]): 0.683 µM | CC50 (in vitro): > 50 µM

C=CCn1c(SCC(=O)Nc2ccc(Br)cn2)nc2ccccc21 [Compound 19]
IC50 (A/WSN/33 [1]; [8]): > 50 µM | IC90 (A/WSN/33 [1]; [9]): > 50 µM | 24 h MTT CC10 (A549 cells [2]): 18.984 µM | CC50 (in vitro): > 50 µM

NC(=O)CSc1nc2ccccc2[nH]1 [Compound 5]
IC50 (A/WSN/33 [1]; [8]): > 50 µM | IC90 (A/WSN/33 [1]; [9]): > 50 µM | 24 h MTT CC10 (A549 cells [2]): >50 µM | CC50 (in vitro): > 50 µM

O=C(CSc1nc2ccccc2[nH]1)NCc1ccccn1 [Compound 8]
IC50 (A/WSN/33 [1]; [8]): > 50 µM | IC90 (A/WSN/33 [1]; [9]): > 50 µM | 24 h MTT CC10 (A549 cells [2]): >50 µM | CC50 (in vitro): > 50 µM
